In paper PMC13233820, “Recruitment of Mre11 to recombination sites during meiosis” (Nature Communications, 2026):

Columns and labels:
U-[13C,15N] Smt3 = assay: NMR chemical shift perturbation, SIM3 peptides with Smt3; assay type: binding, Saccharomyces cerevisiae; settings: 1.2 molar equivalents of peptide, 0.3 mM Smt3, 20 mM sodium phosphate, 20 mM NaCl pH 6.5, 298 K
Method: The samples contained 0.3–0.6 mM of U-[^13C,^15N] […] All NMR spectra were acquired at 298 K on a Bruker Avance III HD 800 MHz spectrometer, equipped with a TCI cryoprobe. The NMR data were acquired in TopSpin 3.6 (Bruker) and processed in NMRPipe v.7.5[76] and analyzed in CCPNMR v. 2.4.2[77]. Assignments of Smt3 backbone amide resonances were taken from literature[78] and verified by 3D HNCACB, HN(CO)CACB, and ^15N-edited NOESY-HSQC (mixing time 100 ms) spectra. Further assignments of methyl resonances were obtained from [^1H, ^13C] […] The assigned ^1H, ^13C and ^15N chemical shifts of the free and bound Smt3 have been deposited in the Biological Magnetic Resonance Bank (http://www.bmrb.wisc.edu/) under the accession number 53209.
The NMR binding experiments were performed by an incremental addition of wild-type or mutant SIM peptides (1.2 mM stocks in the working buffer) to 0.3 mM samples of U-[^13C,^15N] Smt3, with the spectral changes monitored in [^1H,^15N] HSQC spectra acquired at each increment and [^1H, ^13C] […] The average chemical shift perturbations (Δδavg) were calculated as Δδavg = (ΔδX^2/n + ΔδH^2/2)^0.5, where ΔδX and ΔδH are the chemical shift changes of the backbone amide nitrogens or methyl carbons (ΔδX) and protons (ΔδH) of Smt3 residues upon addition of 1.2 molar equivalents of SIM peptides, and n = 50 or 9 for the backbone amide and methyl groups, respectively.

Smt3 = target: T1, Smt3 (Saccharomyces cerevisiae, UniProt Q12306); assay: Isothermal titration calorimetry, SIM3 peptides on Smt3; assay type: binding; settings: 2 mM peptide in syringe, 20 mM NaPi 100 mM NaCl pH 7.5, 10% DMSO, 25 °C
T1 construct: 6xHis (C); made in house; host or cells: E. coli BL21 (DE3)pLysS
Method: The syringe contained 2 mM of peptide, while the cell held 150 µM or 300 µM of protein. […] For the ITC titrations, equal amounts of DMSO (10%) were included in both compartments to minimize the heat of dilution. Each titration consisted of a first injection of 0.4 µL, followed by 12-13 injections of 2 µL peptide into the cell, separated by intervals of 120 s. The first injection was discarded during the analysis of the data. The wild-type peptide titration on Smt3 was performed in duplicate. The Microcal LLC ITC200 Origin software was used to fit the data to a single binding site model.

T1 sequence (Q12306 whole entry): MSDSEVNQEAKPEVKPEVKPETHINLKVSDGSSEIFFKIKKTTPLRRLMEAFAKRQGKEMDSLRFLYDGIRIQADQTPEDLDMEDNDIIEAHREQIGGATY

| Sequence | Average backbone amide chemical shift perturbation of Smt3 (in words) (U-[13C,15N] Smt3) | ITC interaction with Smt3 (Smt3) |
| --- | --- | --- |
| ENDIIMVSTDE [wild-type SIM3 peptide] | induced strong backbone amide chemical shift to Smt3 residues I35, F36, F37, K38, I39 and R46 | – |
| ENDAIAVSTDE [mutant SIM3 peptide, SIM3 peptide with I633 and M635 mutated to alanine] | – | failed to interact with Smt3 |
